Where only a bound is given, the exact number is not on record here.

The test system of this test is HEK293T cells carrying the ATF4 luciferase reporter. Briefly: ATF4-Luc assay, in vitro model of Vanishing Cell White Matter Disease (VWMD). The format is cell-based. The conditions noted are these: Homo sapiens, HEK-293T, 1 μg/mL tunicamycin, 7 hours, One Glo luminescence. In a few lines: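 Compound at 200 nM and tunicamycin at 1 μg/mL were given together for 7 h to HEK293T cells stably transduced with an ATF4 5′-UTR-driven firefly luciferase reporter. Read-out by luminescence, reported as EC50.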
One may read the EC50 as the concentration giving half of the maximal effect. Take `N#Cc1ccsc1C(=O)NC12CC(NC(=O)COc3ccc(Cl)c(F)c3)(C1)C2` [Compound 860, N-{3-[2-(4-chloro-3-fluorophenoxy)acetamido]bicyclo[1.1.1]pentan-1-yl}-3-cyanothiophene-2-carboxamide]: the EC50 lay within 1000 to 2000 nM.

For the compound `O=C(COc1ccc(Cl)c(F)c1)NC12CC(NC(=O)c3ccc4c(c3)OCCO4)(C1)C2` [Compound 387, N-{3-[2-(4-chloro-3-fluorophenoxy)acetamido]bicyclo[1.1.1]pentan-1-yl}-2,3-dihydro-1,4-benzodioxine-6-carboxamide], the EC50 lay within 50 to 250 nM. As to `O=C(COc1ccc(Cl)c(F)c1)NC12CCC(NS(=O)(=O)c3ccc(C(F)(F)F)cc3)(CC1)[C@@H](O)C2` [Compound 663, 2-(4-chloro-3-fluorophenoxy)-N-[(3S)-3-hydroxy-4-{[4-(trifluoromethyl)benzene-1-sulfonyl]amino}bicyclo[2.2.2]octan-1-yl]acetamide], the EC50 was in the range of 50 to 250 nM.

As to `O=C(COc1ccc(Cl)c(F)c1)NC12CC(NC(=O)c3cnco3)(C1)C2` [Compound 573, N-{3-[2-(4-chloro-3-fluorophenoxy)acetamido]bicyclo[1.1.1]pentan-1-yl}-1,3-oxazole-5-carboxamide], the EC50 is 1000 to 2000 nM.

Regarding `COCc1nc(C(=O)NC23CC(NC(=O)COc4ccc(Cl)c(F)c4)(C2)C3)cs1` [Compound 926, N-{3-[2-(4-chloro-3-fluorophenoxy)acetamido]bicyclo[1.1.1]pentan-1-yl}-2-(methoxymethyl)-1,3-thiazole-4-carboxamide], the EC50 was in the range of 50 to 250 nM. As to `O=C(COc1ccc(Cl)c(Cl)c1)NC12CC(NC(=O)c3ccccn3)(C1)C2` [Compound 156, N-{3-[2-(3,4-dichlorophenoxy)acetamido]bicyclo[1.1.1]pentan-1-yl}pyridine-2-carboxamide], the EC50 lay within 50 to 250 nM. In the case of `Cn1nc2ccccc2c1C(=O)NC12CC(NC(=O)COc3ccc(Cl)c(F)c3)(C1)C2` [Compound 896, N-{3-[2-(4-chloro-3-fluorophenoxy)acetamido]bicyclo[1.1.1]pentan-1-yl}-2-methyl-2H-indazole-3-carboxamide] it was 1000 to 2000 nM; in that of `NS(=O)(=O)c1ccc(C(=O)NC23CC(NC(=O)COc4ccc(Cl)c(F)c4)(C2)C3)o1` [Compound 905, N-{3-[2-(4-chloro-3-fluorophenoxy)acetamido]bicyclo[1.1.1]pentan-1-yl}-5-sulfamoylfuran-2-carboxamide], > 2000 nM. Consider `O=C(COc1ccc(Cl)c(F)c1)NC12CC(NC(=O)c3cnc(C(F)F)s3)(C1)C2` [Compound 443, N-{3-[2-(4-chloro-3-fluorophenoxy)acetamido]bicyclo[1.1.1]pentan-1-yl}-2-(difluoromethyl)-1,3-thiazole-5-carboxamide], for which the EC50 is < 50 nM. In the case of `Cc1cc(C(=O)NC23CCC(NC(=O)COc4ccc(Cl)c(F)c4)(C2)C3)on1` [Compound 324, N-{4-[2-(4-chloro-3-fluorophenoxy)acetamido]bicyclo[2.1.1]hexan-1-yl}-3-methyl-1,2-oxazole-5-carboxamide] it was 250 to 1000 nM; in that of `NCc1ccnc(C(=O)NC23CC(NC(=O)COc4ccc(Cl)c(F)c4)(C2)C3)c1` [Compound 193, 4-(aminomethyl)-N-{3-[2-(4-chloro-3-fluorophenoxy)acetamido]bicyclo[1.1.1]pentan-1-yl}pyridine-2-carboxamide], 50 to 250 nM; in that of `Cc1cc(C(=O)NC23CCC(NC(=O)COc4ccc(Cl)c(F)c4)(CC2)CC3F)on1` (centres unmarked) [Compound 374, N-{4-[2-(4-chloro-3-fluorophenoxy)acetamido]-2-fluorobicyclo[2.2.2]octan-1-yl}-3-methyl-1,2-oxazole-5-carboxamide], > 2000 nM. Regarding `COCc1cncc(C(=O)NC23CC(NC(=O)COc4ccc(Cl)c(F)c4)(C2)C3)c1` [Compound 568, N-{3-[2-(4-chloro-3-fluorophenoxy)acetamido]bicyclo[1.1.1]pentan-1-yl}-5-(methoxymethyl)pyridine-3-carboxamide], the half-maximal effective concentration (EC50) lay within 50 to 250 nM. In the case of `CCOc1cc(C)nc(NC23CC(NC(=O)COc4ccc(Cl)c(F)c4)(C2)C3)n1` [Compound 383, 2-(4-chloro-3-fluorophenoxy)-N-{3-[(4-ethoxy-6-methylpyrimidin-2-yl)amino]bicyclo[1.1.1]pentan-1-yl}acetamide] it was > 2000 nM; in that of `O=C(COc1ccc(Cl)c(F)c1)NC12CC(NC(=O)c3ccc(OC(F)(F)F)cn3)(C1)C2` [Compound 117, N-{3-[2-(4-chloro-3-fluorophenoxy)acetamido]bicyclo[1.1.1]pentan-1-yl}-5-(trifluoromethoxy)pyridine-2-carboxamide], < 50 nM; in that of `O=C(COc1ccc(Cl)c(F)c1)NC12CC(NS(=O)(=O)c3ccc(Cl)cn3)(C1)C2` [Compound 661, 2-(4-chloro-3-fluorophenoxy)-N-{3-[(5-chloropyridine-2-sulfonyl)amino]bicyclo[1.1.1]pentan-1-yl}acetamide], > 2000 nM. The same measure for `COc1cccc(C(=O)NC23CC(NC(=O)COc4ccc(Cl)c(F)c4)(C2)C3)n1` [Compound 829, N-{3-[2-(4-chloro-3-fluorophenoxy)acetamido]bicyclo[1.1.1]pentan-1-yl}-6-methoxypyridine-2-carboxamide]: 50 to 250 nM. In the case of `Cc1cnn2ccc(NC34CC(NC(=O)COc5ccc(Cl)c(F)c5)(C3)C4)nc12` [Compound 610, 2-(4-chloro-3-fluorophenoxy)-N-{3-[(3-methylpyrazolo[1,5-a]pyrimidin-5-yl)amino]bicyclo[1.1.1]pentan-1-yl}acetamide] it was 1000 to 2000 nM; in that of `O=C(COc1ccc(Cl)c(F)c1)NC12CC(NC(=O)c3cnc4ccccc4c3)(C1)C2` [Compound 587, N-{3-[2-(4-chloro-3-fluorophenoxy)acetamido]bicyclo[1.1.1]pentan-1-yl}quinoline-3-carboxamide], 50 to 250 nM; in that of `O=C(COc1ccc(Cl)c(F)c1)NC12CCC(NC(=O)c3cc4nccnc4s3)(CC1)CC2O` (centres unmarked) [Compound 627, N-{4-[2-(4-chloro-3-fluorophenoxy)acetamido]-3-hydroxybicyclo[2.2.2]octan-1-yl}thieno[2,3-b]pyrazine-6-carboxamide], > 2000 nM. Consider `Cc1cc(C(=O)N(C)C23CC(NC(=O)COc4ccc(Cl)c(F)c4)(C2)C3)on1` [Compound 355, N-{3-[2-(4-chloro-3-fluorophenoxy)acetamido]bicyclo[1.1.1]pentan-1-yl}-N,3-dimethyl-1,2-oxazole-5-carboxamide], for which the EC50 is 1000 to 2000 nM. In the case of `CCn1cc(C(=O)NC23CC(NC(=O)COc4ccc(Cl)c(F)c4)(C2)C3)c(C)n1` [Compound 825, N-{3-[2-(4-chloro-3-fluorophenoxy)acetamido]bicyclo[1.1.1]pentan-1-yl}-1-ethyl-3-methyl-1H-pyrazole-4-carboxamide] it was 250 to 1000 nM.

Take `O=C(COc1ccc(Cl)c(Cl)c1)NC12CC(NC(=O)c3cnc(C4CC4)o3)(C1)C2` [Compound 614, 2-cyclopropyl-N-{3-[2-(3,4-dichlorophenoxy)acetamido]bicyclo[1.1.1]pentan-1-yl}-1,3-oxazole-5-carboxamide]: the EC50 fell in the range of 50 to 250 nM. In the case of `COc1cc(C(=O)NC23CC(NC(=O)COc4ccc(Cl)c(F)c4)(C2)C3)ccn1` [Compound 763, N-{3-[2-(4-chloro-3-fluorophenoxy)acetamido]bicyclo[1.1.1]pentan-1-yl}-2-methoxypyridine-4-carboxamide] it was > 2000 nM; in that of `COCc1cncc(C(=O)NC23CC(NC(=O)COc4ccc(Cl)c(Cl)c4)(C2)C3)c1` [Compound 569, N-{3-[2-(3,4-dichlorophenoxy)acetamido]bicyclo[1.1.1]pentan-1-yl}-5-(methoxymethyl)pyridine-3-carboxamide], < 50 nM.

Turning to `Cc1ocnc1C(=O)NC12CC(NC(=O)COc3ccc(Cl)c(F)c3)(C1)C2` [Compound 909, N-{3-[2-(4-chloro-3-fluorophenoxy)acetamido]bicyclo[1.1.1]pentan-1-yl}-5-methyl-1,3-oxazole-4-carboxamide], the EC50 is > 2000 nM. The same measure for `O=C(COc1ccc(Cl)c(F)c1)NC12CCC(NC(=O)c3ccc4c(c3)OCO4)(CC1)C(O)C2` (centres unmarked) [Compound 211, N-{4-[2-(4-chloro-3-fluorophenoxy)acetamido]-2-hydroxybicyclo[2.2.2]octan-1-yl}-2H-1,3-benzodioxole-5-carboxamide]: 1000 to 2000 nM; for `O=C(COc1ccc(Cl)c(Cl)c1)NC12CC(NC(=O)c3ccc(OC(F)(F)F)nc3)(C1)C2` [Compound 147, N-{3-[2-(3,4-dichlorophenoxy)acetamido]bicyclo[1.1.1]pentan-1-yl}-6-(trifluoromethoxy)pyridine-3-carboxamide]: 50 to 250 nM; for `CSc1nccc(C(=O)NC23CC(NC(=O)COc4ccc(Cl)c(F)c4)(C2)C3)n1` [Compound 838, N-{3-[2-(4-chloro-3-fluorophenoxy)acetamido]bicyclo[1.1.1]pentan-1-yl}-2-(methylsulfanyl)pyrimidine-4-carboxamide]: 50 to 250 nM. The same measure for `O=C(COc1ccc(Cl)c(F)c1)NC12CCC(NC(=O)c3coc(C(F)(F)F)c3)(CC1)CC2O` (centres unmarked) [Compound 566, N-{4-[2-(4-chloro-3-fluorophenoxy)acetamido]-3-hydroxybicyclo[2.2.2]octan-1-yl}-5-(trifluoromethyl)furan-3-carboxamide]: < 50 nM; for `Cc1ccn2cc(C(=O)NC34CCC(NC(=O)COc5ccc(Cl)c(F)c5)(CC3)C(O)C4)nc2c1` (centres unmarked) [Compound 598, N-{4-[2-(4-chloro-3-fluorophenoxy)acetamido]-3-hydroxybicyclo[2.2.2]octan-1-yl}-7-methylimidazo[1,2-a]pyridine-2-carboxamide]: 50 to 250 nM. In the case of `Cc1nn(C)c(C(=O)NC23CC(NC(=O)COc4ccc(Cl)c(Cl)c4)(C2)C3)c1F` [Compound 500, N-{3-[2-(3,4-dichlorophenoxy)acetamido]bicyclo[1.1.1]pentan-1-yl}-4-fluoro-1,3-dimethyl-1H-pyrazole-5-carboxamide] it was < 50 nM.
